This assay deals with Beta-3 adrenergic receptor (Rattus norvegicus) (UniProt P26255). Briefly: Beta-3-adrenergic activity measured by percent response against free fatty acid (FFA) in rat plasma at a dosage of 0.1 mg/kg. It is filed as functional, organism-based. Details: dose 0.1 mg/kg.

Molecules are shown by their SMILES.

Sequence of Beta-3 adrenergic receptor (Rattus norvegicus) (P26255 whole entry): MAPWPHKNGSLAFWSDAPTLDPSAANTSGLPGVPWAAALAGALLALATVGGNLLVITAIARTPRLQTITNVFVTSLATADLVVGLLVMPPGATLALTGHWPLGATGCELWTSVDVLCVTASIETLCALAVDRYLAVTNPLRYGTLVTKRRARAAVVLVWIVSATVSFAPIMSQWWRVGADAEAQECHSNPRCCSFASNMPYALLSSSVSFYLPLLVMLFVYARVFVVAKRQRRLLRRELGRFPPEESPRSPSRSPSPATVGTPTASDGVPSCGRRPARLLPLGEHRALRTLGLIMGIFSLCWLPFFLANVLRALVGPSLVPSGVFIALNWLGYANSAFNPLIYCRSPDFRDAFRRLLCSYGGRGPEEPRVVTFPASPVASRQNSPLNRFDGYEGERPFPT

Turning to `CC(C)CCC(=O)OCOC(=O)C1(C(=O)OCOC(=O)CCC(C)C)Oc2ccc(C[C@@H](C)NC[C@H](O)c3cccc(Cl)c3)cc2O1`, the Response turned out to be 37%.
For the molecule `CCC(CC)OC(=O)C1(C(=O)OC(CC)CC)Oc2ccc(C[C@@H](C)NC[C@H](O)c3cccc(Cl)c3)cc2O1`, the Response was found to be 63%.
The same measure for `COC(=O)C(C)OC(=O)C1(C(=O)OC(C)C(=O)OC)Oc2ccc(C[C@@H](C)NC[C@H](O)c3cccc(Cl)c3)cc2O1` (some centres undefined): 42%; for `CCOCCOC(=O)C1(C(=O)OCCOCC)Oc2ccc(C[C@@H](C)NC[C@H](O)c3cccc(Cl)c3)cc2O1`: 101%.
Consider `CC(OC(=O)C1(C(=O)OC(C)c2ccccc2)Oc2ccc(C[C@@H](C)NC[C@H](O)c3cccc(Cl)c3)cc2O1)c1ccccc1` (some centres undefined), for which the Response was 78%.
In turn, `C[C@H](Cc1ccc2c(c1)OC(C(=O)OCCCCc1ccccc1)(C(=O)OCCCCc1ccccc1)O2)NC[C@H](O)c1cccc(Cl)c1` showed a Response of 43%.
For `C[C@H](Cc1ccc2c(c1)OC(C(=O)OCCCc1ccccc1)(C(=O)OCCCc1ccccc1)O2)NC[C@H](O)c1cccc(Cl)c1`, the Response came to 61%.
To `C[C@H](Cc1ccc2c(c1)OC(C(=O)OCc1cccc(Cl)c1)(C(=O)OCc1cccc(Cl)c1)O2)NC[C@H](O)c1cccc(Cl)c1` belongs 46%; to `C[C@H](Cc1ccc2c(c1)OC(C(=O)O)(C(=O)OCCOc1ccccc1)O2)NC[C@H](O)c1cccc(Cl)c1` (some centres undefined), 51%.
The same measure for `C[C@H](Cc1ccc2c(c1)OC(C(=O)O)(C(=O)OCC1CC1)O2)NC[C@H](O)c1cccc(Cl)c1` (some centres undefined): 37%; for `C[C@H](Cc1ccc2c(c1)OC(C(=O)O)(C(=O)OCCC1CC1)O2)NC[C@H](O)c1cccc(Cl)c1` (some centres undefined): 19%.
To `CC(C)C(=O)OCOC(=O)C1(C(=O)OCOC(=O)C(C)C)Oc2ccc(C[C@@H](C)NC[C@H](O)c3cccc(Cl)c3)cc2O1` belongs 26%; to `C[C@H](Cc1ccc2c(c1)OC(C(=O)OCC1CCCCO1)(C(=O)OCC1CCCCO1)O2)NC[C@H](O)c1cccc(Cl)c1` (some centres undefined), 11%; to `COCCOCCOC(=O)C1(C(=O)OCCOCCOC)Oc2ccc(C[C@@H](C)NC[C@H](O)c3cccc(Cl)c3)cc2O1`, 71%.
Take `CCCCOC(=O)C1(C(=O)OCCCC)Oc2ccc(C[C@@H](C)NC[C@H](O)c3cccc(Cl)c3)cc2O1`: the Response is 83%.
Take `C[C@H](Cc1ccc2c(c1)OC(C(=O)OCCC1CC1)(C(=O)OCCC1CC1)O2)NC[C@H](O)c1cccc(Cl)c1`: the Response is 77%.
To `CC(C)COCCOC(=O)C1(C(=O)OCCOCC(C)C)Oc2ccc(C[C@@H](C)NC[C@H](O)c3cccc(Cl)c3)cc2O1` belongs 63%; to `C[C@H](Cc1ccc2c(c1)OC(C(=O)OCCc1cccc(C(F)(F)F)c1)(C(=O)OCCc1cccc(C(F)(F)F)c1)O2)NC[C@H](O)c1cccc(Cl)c1`, 28%.
To `C[C@H](Cc1ccc2c(c1)OC(C(=O)OCCCOCc1ccccc1)(C(=O)OCCCOCc1ccccc1)O2)NC[C@H](O)c1cccc(Cl)c1` belongs 83%.
`CC(C)OC(=O)C1(C(=O)O)Oc2ccc(C[C@@H](C)NC[C@H](O)c3cccc(Cl)c3)cc2O1` (some centres undefined) yielded a Response of 45%.
To `C[C@H](Cc1ccc2c(c1)OC(C(=O)OCCOC(C)(C)C)(C(=O)OCCOC(C)(C)C)O2)NC[C@H](O)c1cccc(Cl)c1` belongs 14%; to `CCCCCCOC(=O)C1(C(=O)O)Oc2ccc(C[C@@H](C)NC[C@H](O)c3cccc(Cl)c3)cc2O1` (some centres undefined), 66%; to `C[C@H](Cc1ccc2c(c1)OC(C(=O)O)(C(=O)OCC1CCCCC1)O2)NC[C@H](O)c1cccc(Cl)c1` (some centres undefined), 47%.
With `CCC(CC)OC(=O)C1(C(=O)O)Oc2ccc(C[C@@H](C)NC[C@H](O)c3cccc(Cl)c3)cc2O1` (some centres undefined), the Response was 52%.
The same measure for `C[C@H](Cc1ccc2c(c1)OC(C(=O)OCOC(=O)C1CCCCC1)(C(=O)OCOC(=O)C1CCCCC1)O2)NC[C@H](O)c1cccc(Cl)c1`: 19%; for `C[C@H](Cc1ccc2c(c1)OC(C(=O)OCCOCc1ccccc1)(C(=O)OCCOCc1ccccc1)O2)NC[C@H](O)c1cccc(Cl)c1`: 120%; for `CCC(=O)OC(C)OC(=O)C1(C(=O)OC(C)OC(=O)CC)Oc2ccc(C[C@@H](C)NC[C@H](O)c3cccc(Cl)c3)cc2O1` (some centres undefined): 2%.
The same measure for `C[C@H](Cc1ccc2c(c1)OC(C(=O)OCc1ccccc1)(C(=O)OCc1ccccc1)O2)NC[C@H](O)c1cccc(Cl)c1`: 21%; for `COCCOC(=O)C1(C(=O)O)Oc2ccc(C[C@@H](C)NC[C@H](O)c3cccc(Cl)c3)cc2O1` (some centres undefined): 85%.
To `C[C@H](Cc1ccc2c(c1)OC(C(=O)OCOC(=O)C(C)(C)C)(C(=O)OCOC(=O)C(C)(C)C)O2)NC[C@H](O)c1cccc(Cl)c1` belongs 14%; to `CC(OC(=O)C(C)(C)C)OC(=O)C1(C(=O)OC(C)OC(=O)C(C)(C)C)Oc2ccc(C[C@@H](C)NC[C@H](O)c3cccc(Cl)c3)cc2O1` (some centres undefined), 23%.
In the case of `CC(OC(=O)c1ccccc1)OC(=O)C1(C(=O)OC(C)OC(=O)c2ccccc2)Oc2ccc(C[C@@H](C)NC[C@H](O)c3cccc(Cl)c3)cc2O1` (some centres undefined), the Response was 30%.
For the molecule `C[C@H](Cc1ccc2c(c1)OC(C(=O)O)(C(=O)OCC1CCC1)O2)NC[C@H](O)c1cccc(Cl)c1` (some centres undefined), the Response is 39%.
To `C[C@H](Cc1ccc2c(c1)OC(C(=O)O)(C(=O)OCCOC(C)(C)C)O2)NC[C@H](O)c1cccc(Cl)c1` (some centres undefined) belongs 20%; to `CCOCCOC(=O)C1(C(=O)O)Oc2ccc(C[C@@H](C)NC[C@H](O)c3cccc(Cl)c3)cc2O1` (some centres undefined), 73%; to `CC(C)OCCOC(=O)C1(C(=O)OCCOC(C)C)Oc2ccc(C[C@@H](C)NC[C@H](O)c3cccc(Cl)c3)cc2O1`, 86%.
`CC(=O)OCOC(=O)C1(C(=O)OCOC(C)=O)Oc2ccc(C[C@@H](C)NC[C@H](O)c3cccc(Cl)c3)cc2O1` registered a Response of 39%.
The same measure for `C[C@H](Cc1ccc2c(c1)OC(C(=O)O)(C(=O)OCC[Si](C)(C)C)O2)NC[C@H](O)c1cccc(Cl)c1` (some centres undefined): 30%; for `CCCOC(=O)COC(=O)C1(C(=O)OCC(=O)OCCC)Oc2ccc(C[C@@H](C)NC[C@H](O)c3cccc(Cl)c3)cc2O1`: 30%.
The same measure for `Cc1cccc(CCOC(=O)C2(C(=O)OCCc3cccc(C)c3)Oc3ccc(C[C@@H](C)NC[C@H](O)c4cccc(Cl)c4)cc3O2)c1`: 39%.
The same measure for `C[C@H](Cc1ccc2c(c1)OC(C(=O)OCCOc1ccc(Cl)cc1)(C(=O)OCCOc1ccc(Cl)cc1)O2)NC[C@H](O)c1cccc(Cl)c1`: 26%; for `CCC(=O)OCOC(=O)C1(C(=O)OCOC(=O)CC)Oc2ccc(C[C@@H](C)NC[C@H](O)c3cccc(Cl)c3)cc2O1`: 10%.
`C[C@H](Cc1ccc2c(c1)OC(C(=O)OCC(C)(C)Cc1ccccc1)(C(=O)OCC(C)(C)Cc1ccccc1)O2)NC[C@H](O)c1cccc(Cl)c1` had a Response of 25%.
The same measure for `COc1ccc(COC(=O)C2(C(=O)OCc3ccc(OC)cc3)Oc3ccc(C[C@@H](C)NC[C@H](O)c4cccc(Cl)c4)cc3O2)cc1`: 8%; for `C[C@H](Cc1ccc2c(c1)OC(C(=O)OCCOc1cccc(Cl)c1)(C(=O)OCCOc1cccc(Cl)c1)O2)NC[C@H](O)c1cccc(Cl)c1`: 88%.
In the case of `C[C@H](Cc1ccc2c(c1)OC(C(=O)O)(C(=O)OC[Si](C)(C)C)O2)NC[C@H](O)c1cccc(Cl)c1` (some centres undefined), the Response was found to be 30%.
To `C[C@H](Cc1ccc2c(c1)OC(C(=O)OCCCCCc1ccccc1)(C(=O)OCCCCCc1ccccc1)O2)NC[C@H](O)c1cccc(Cl)c1` belongs 93%; to `CCC(CC)COC(=O)C1(C(=O)O)Oc2ccc(C[C@@H](C)NC[C@H](O)c3cccc(Cl)c3)cc2O1` (some centres undefined), 56%.
With `C[C@H](Cc1ccc2c(c1)OC(C(=O)OCC1CCOC1)(C(=O)OCC1CCOC1)O2)NC[C@H](O)c1cccc(Cl)c1` (some centres undefined), the Response turned out to be 68%.
For the molecule `C[C@H](Cc1ccc2c(c1)OC(C(=O)OCC1CCCO1)(C(=O)OCC1CCCO1)O2)NC[C@H](O)c1cccc(Cl)c1` (some centres undefined), the Response came to 24%.
To `CCOC(=O)COC(=O)C1(C(=O)OCC(=O)OCC)Oc2ccc(C[C@@H](C)NC[C@H](O)c3cccc(Cl)c3)cc2O1` belongs 22%; to `C[C@H](Cc1ccc2c(c1)OC(C(=O)OCC(=O)Oc1ccccc1)(C(=O)OCC(=O)Oc1ccccc1)O2)NC[C@H](O)c1cccc(Cl)c1`, 37%.
In turn, `CC(OC(=O)OC1CCCCC1)OC(=O)C1(C(=O)OC(C)OC(=O)OC2CCCCC2)Oc2ccc(C[C@@H](C)NC[C@H](O)c3cccc(Cl)c3)cc2O1` (some centres undefined) came in with a Response of 17%.
The same measure for `CCC(CC)COC(=O)C1(C(=O)OCC(CC)CC)Oc2ccc(C[C@@H](C)NC[C@H](O)c3cccc(Cl)c3)cc2O1`: 86%.
The same measure for `CCCCCCCCOC(=O)C1(C(=O)O)Oc2ccc(C[C@@H](C)NC[C@H](O)c3cccc(Cl)c3)cc2O1` (some centres undefined): 45%; for `C[C@H](Cc1ccc2c(c1)OC(C(=O)OCC1CCCCC1)(C(=O)OCC1CCCCC1)O2)NC[C@H](O)c1cccc(Cl)c1`: 22%; for `C[C@H](Cc1ccc2c(c1)OC(C(=O)OCC1(C)CCCCC1)(C(=O)OCC1(C)CCCCC1)O2)NC[C@H](O)c1cccc(Cl)c1`: 84%.
To `CC(C)CCOC(=O)C1(C(=O)O)Oc2ccc(C[C@@H](C)NC[C@H](O)c3cccc(Cl)c3)cc2O1` (some centres undefined) belongs 42%; to `C=CCOC(=O)C1(C(=O)OCC=C)Oc2ccc(C[C@@H](C)NC[C@H](O)c3cccc(Cl)c3)cc2O1`, 86%; to `C[C@H](Cc1ccc2c(c1)OC(C(=O)O)(C(=O)OCC(C)(C)C)O2)NC[C@H](O)c1cccc(Cl)c1` (some centres undefined), 81%.
In the case of `C[C@H](Cc1ccc2c(c1)OC(C(=O)O)(C(=O)OCCOCc1ccccc1)O2)NC[C@H](O)c1cccc(Cl)c1` (some centres undefined), the Response was 109%.
The same measure for `CCCC(=O)OCOC(=O)C1(C(=O)OCOC(=O)CCC)Oc2ccc(C[C@@H](C)NC[C@H](O)c3cccc(Cl)c3)cc2O1`: 24%; for `C[C@H](Cc1ccc2c(c1)OC(C(=O)OCCc1cccc(Br)c1)(C(=O)OCCc1cccc(Br)c1)O2)NC[C@H](O)c1cccc(Cl)c1`: 71%; for `CC(C)OC(=O)COC(=O)C1(C(=O)OCC(=O)OC(C)C)Oc2ccc(C[C@@H](C)NC[C@H](O)c3cccc(Cl)c3)cc2O1`: 78%.

(Values after ChEMBL document CHEMBL1131783, “Prodrugs of CL316243: a selective beta3-adrenergic receptor agonist for treating obesity and diabetes” (Bioorg Med Chem Lett, 1999).)
